Reference: ChEMBL document CHEMBL1201862, “PubChem BioAssay data set” (2004)
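Interpolation was linear, between the two tested concentrations surrounding the appropriate level; five concentrations were tested over 48 hours in 96-well plates. At the GI50, growth is halved.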 Active and inactive are the calls of the source. Rule as the data show it: active = GI50 up to about 1.1 µM and inactive = higher. Non-standard residues stand in square brackets, D forms with d. Residues, ends and D or L forms follow the SMILES beside them. ξ: configuration not given here. *: point of attachment. X18 = COC1=CC(=O)N(C(=O)C(O*)C(C)C)C1Cc1ccccc1; ξNMe2Val = CC(C)C(C(=O)*)N(C)C; NMeV = CN[CH](C(=O)O)C(C)C

What was measured:
Experiment in all cases: DTP human tumour cell line panel, 48 h
SNB-78 = system: SNB-78
SK-OV-3 = system: SK-OV-3
LXFL 529 = system: LXFL 529
M14 = system: M14
MOLT-4 = system: MOLT-4
786-0 = system: 786-0
HL-60 = system: HL-60
HOP-92 = system: HOP-92
EKVX = system: EKVX
PC-3 = system: PC-3
SF-295 = system: SF-295
NCI-H460 = system: NCI-H460
RPMI-8226 = system: RPMI-8226
HCT-116 = system: HCT-116
OVCAR-3 = system: OVCAR-3
DU-145 = system: DU-145
HCC 2998 = system: HCC 2998
A549 = system: A549
CAKI-1 = system: CAKI-1
UO-31 = system: UO-31

Row | SMILES | GI50 (SNB-78) | GI50 (SK-OV-3) | GI50 (LXFL 529) | GI50 (M14) | GI50 (MOLT-4) | GI50 (786-0) | GI50 (HL-60) | GI50 (HOP-92) | GI50 (EKVX) | GI50 (PC-3) | GI50 (SF-295) | GI50 (NCI-H460) | GI50 (RPMI-8226) | GI50 (HCT-116) | GI50 (OVCAR-3) | GI50 (DU-145) | GI50 (HCC 2998) | GI50 (A549) | GI50 (CAKI-1) | GI50 (UO-31)
1 | COC1=CC(=O)N(C(=O)C(OC(=O)C2CCCN2C(=O)C2CCCN2C(=O)C(C(C)C)N(C)C(=O)C(NC(=O)C(C(C)C)N(C)C)C(C)C)C(C)C)C1Cc1ccccc1 (stereo not given) (ξNMe2Val-V[NMeV]PP-X18; configuration not given here) | 0.00244 µM (active) | 0.00485 µM (active) | 0.00119 µM (active) | 0.0027 µM (active) | 0.00102 µM (active) | 0.00223 µM (active) | 0.000171 µM (active) | 0.00294 µM (active) | 0.00242 µM (active) | 0.00158 µM (active) | 0.00161 µM (active) | 0.00158 µM (active) | 0.000524 µM (active) | 0.000582 µM (active) | 0.000327 µM (active) | 0.000618 µM (active) | 0.00205 µM (active) | 0.00955 µM (active) | 0.00103 µM (active) | 0.00938 µM (active)
2 | C[n+]1c2ccccc2c(CNC(CCC(N)=O)C(=O)O)c2ccccc21 (stereo not given) | 6.5 µM (inactive) | 6.21 µM (inactive) | 0.817 µM (active) | 3.41 µM (inactive) | 0.998 µM (active) | 1.01 µM (active) | 0.239 µM (active) | 0.948 µM (active) | 6.75 µM (inactive) | 5.61 µM (inactive) | 6.71 µM (inactive) | 3.72 µM (inactive) | 0.39 µM (active) | 0.302 µM (active) | 2.31 µM (inactive) | 5.52 µM (inactive) | 4.24 µM (inactive) | 4.38 µM (inactive) | 2.36 µM (inactive) | 2.67 µM (inactive)
